According to US8367873B2, “Phenyl-substituted bicyclooctane-1,3-dione derivatives” (Bayer Cropscience AG, priority 2008, dated 2013):

Tests used:
Type in all cases: in vivo
Alopecurus myosuroides [1] = assay: Herbicidal pre-emergence action; details: pre-emergence method, 80 g/ha, greenhouse, visual assessment vs untreated controls
How it was run: (§1)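 Visual percent damage score (100% = dead plants, 0% = as untreated control) taken three weeks after pre-emergence treatment. Compounds were wettable powders sprayed onto covering soil over seeds in sandy loam, 600 l/ha water with 0.2% wetting agent, several application amounts; pots kept in greenhouse.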

Echinocloa crus-galli [2] = assay: Herbicidal pre-emergence action; details: pre-emergence method, 80 g/ha, greenhouse, visual assessment vs untreated controls
How it was run: as §1

Lolium multiflorum [3] = assay: Herbicidal pre-emergence action; details: pre-emergence method, 80 g/ha, greenhouse, visual assessment vs untreated controls
How it was run: as §1

Setaria viridis [4] = assay: Herbicidal pre-emergence action; details: pre-emergence method, 80 g/ha, greenhouse, visual assessment vs untreated controls
How it was run: as §1

Alopecurus myosuroides [5] = assay: Herbicidal post-emergence action; details: post-emergence method, 80 g/ha
How it was run: (§2)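 Visual % herbicidal effect vs untreated controls (100% = plants dead, 0% = as control), ~3 wk after spraying. Plants sown in sandy loam, greenhouse-grown, treated at one-leaf stage (2–3 wk post-sowing). WP formulations, 600 l/ha water + 0.2% wetting agent, various doses.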

Echinocloa crus-galli [6] = assay: Herbicidal post-emergence action; details: post-emergence method, 80 g/ha
How it was run: as §2

Lolium multiflorum [7] = assay: Herbicidal post-emergence action; details: post-emergence method, 80 g/ha
How it was run: as §2

Setaria viridis [8] = assay: Herbicidal post-emergence action; details: post-emergence method, 80 g/ha
How it was run: as §2

[9] = test system: monocotylidonous and dicotylidonous weed and crop plants; assay: Herbicidal pre-emergence action (other test plants); details: pre-emergence method, 80 g/ha, greenhouse, visual assessment vs untreated controls
How it was run: as §1

[10] = test system: monocotylidonous and dicotylidonous weed and crop plants; assay: Herbicidal post-emergence action (other test plants); details: post-emergence method, 80 g/ha
How it was run: as §2

Row | Structure (SMILES) | herbicidal effect ALOMY (Alopecurus myosuroides [1]) [%] | herbicidal effect ECHCG (Echinocloa crus-galli [2]) [%] | herbicidal effect LOLMU (Lolium multiflorum [3]) [%] | herbicidal effect SETVI (Setaria viridis [4]) [%] | herbicidal effect against ALOMY (Alopecurus myosuroides) (Alopecurus myosuroides [5]) [%] | herbicidal effect against ECHCG (Echinochloa crus-galli) (Echinocloa crus-galli [6]) [%] | herbicidal effect against LOLMU (Lolium multiflorum) (Lolium multiflorum [7]) [%] | herbicidal effect against SETVI (Setaria viridis) (Setaria viridis [8]) [%] | herbicidal effect AVEFA [9] [%] | herbicidal effect against AVEFA (Avena fatua) [10] [%]
1 | C=C1C[C@@H]2C(O)=C(c3c(C)cc(C)cc3C)C(=O)[C@@H]2C1 (relative stereo) [I-a-36] | 60 | 80 | 90 | 80 | 50 | 90 | 90 | 90 | 70 | 0
2 | CCc1cc(C)cc(CC)c1C1=C(OC(=O)C(C)C)C2CC3(CC2C1=O)OCCS3 (mixture of isomers) [I-b-21] | 80 | 80 | 100 | 20 | 90 | 100 | 100 | 90 | 80 | 90
3 | C#CC(C)ON=C1C[C@@H]2C(O)=C(c3c(CC)cc(C)cc3CC)C(=O)[C@@H]2C1 (relative stereo) [I-a-32] | 90 | 40 | 100 | 20 | 80 | 100 | 100 | 20 | 60 | 0
4 | COc1cc(C)cc(C)c1C1=C([O-])C2CC3(CC2C1=O)OCC=CCO3.[Na+] (centres unmarked) [I-f-7] | 100 | 80 | 100 | 90 | 100 | 100 | 100 | 100 | 70 | 100
5 | CCc1cc(C)cc(C)c1C1=C(OC(C)=O)C2CC3(COC(C)(C)O3)CC2C1=O (centres unmarked) [I-b-66] | 80 | 100 | 100 | 80 | 100 | 100 | 100 | 80 | 80 | 90
6 | CCOC1COC2(CC3C(=O)C(c4c(CC)cc(C)cc4CC)=C([O-])C3C2)OC1.[Na+] (centres unmarked) [I-f-14] | 100 | 100 | 100 | 100 | 100 | 100 | 100 | 100 | 70 | 100
7 | COC(=O)OC1=C(c2c(C)cc(C)cc2C)C(=O)C2CC3(CC12)OCC(C)CO3 (mixture of isomers) [I-c-53] | 100 | 0 | 90 | 60 | 100 | 90 | 100 | 90 | 50 | 80
8 | C=C1CC2C(=O)C(c3c(CC)cc(C)cc3CC)=C([O-])C2C1.[Na+] (centres unmarked) [I-f-21] | 90 | 100 | 100 | 90 | 80 | 100 | 100 | 100 | 70 | 80
9 | Cc1cc(C)c(C2=C(OC(=O)C(C)(C)CCl)C3CC4(COC(C)(C)O4)CC3C2=O)c(C)c1 (mixture of isomers) [I-b-51] | 80 | 30 | 70 | 0 | 90 | 100 | 60 | 40 | 30 | 0
10 | CCC(=O)OC1=C(c2c(CC)cc(C)cc2CC)C(=O)C2CC3(CC12)OCCCO3 (centres unmarked) [I-b-24] | 70 | 100 | 100 | 40 | 100 | 100 | 100 | 100 | 70 | 100
11 | CCc1cc(C)cc(CC)c1C1=C(OC(=O)COC)C2CC3(CC2C1=O)OCCCO3 (centres unmarked) [I-b-28] | 90 | 100 | 100 | 70 | 100 | 100 | 100 | 100 | 50 | 100
12 | CCc1cc(C)cc(CC)c1C1=C([O-])C2CC3(CC2C1=O)OCC=CCO3.[Na+] (centres unmarked) [I-f-12] | 100 | 100 | 70 | 90 | 100 | 100 | 100 | 100 | 70 | 100
13 | CCc1cc(C)cc(C)c1C1=C(OC(=O)C(C)(C)C)C2CC3(CC2C1=O)OCC=CCO3 (centres unmarked) [I-b-75] | 60 | 100 | 100 | 70 | 100 | 100 | 100 | 100 | 60 | 90
14 | CCc1cc(C)cc(CC)c1C1=C([O-])C2CC3(CC2C1=O)OCC(OCc1ccccc1)CO3.[Na+] (centres unmarked) [I-f-16] | 80 | 60 | 90 | 90 | 100 | 100 | 100 | 100 | 80 | 100
15 | CCc1cc(C)cc(C)c1C1=C(OC(=O)OC)C2CC3(CC2C1=O)OCC=CCO3 (racemic) [I-c-73] | 70 | 50 | 100 | 60 | 100 | 100 | 100 | 100 | 40 | 0
16 | CCOC(=O)OC1=C(c2c(CC)cc(C)cc2CC)C(=O)C2CC3(CC12)OCC(C)O3 (mixture of isomers) [I-c-8] | 60 | 60 | 100 | 50 | 90 | 100 | 100 | 90 | 40 | 60
17 | Cc1cc(C)c(C2=C(OC(=O)C(C)C)C3CC4(CC3C2=O)OCC(C)CO4)c(C)c1 (centres unmarked) [I-b-43] | 90 | 20 | 90 | 60 | 100 | 90 | 100 | 100 | 40 | 80
